Ends that are not written are not given here.
How the values were obtained:
[1] = tested on: antibodies in sera from HCV-seropositive donors; test: ELISA with HCV antibody-positive sera (biotinylated peptides on streptavidin- or avidin-coated plates, unbiotinylated peptides coated directly); format: binding, human
Outline: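 Peptides coated either directly at 2–5 or 3 μg/ml in carbonate buffer pH 9.6, or biotinylated at 1 μg/ml on streptavidin-coated wells (3 μg/ml). Plates casein-blocked, then human sera (1:100 or 1:20) incubated 1 h at 37° C. Bound antibody detected with HRP anti-human Ig/TMB, read as OD450.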

[2] = ELISA with seronegative / negative control sera (specificity); format: binding, human
Outline: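 Specificity readout is OD at 450 nm (HRP goat anti-human Ig, TMB/H2O2, sulfuric acid stop), with ≥0.250 counted positive. Seronegative donor sera (typically 1:100, 1 h, 37° C) were applied to casein-blocked wells coated with peptide directly or via streptavidin capture of biotinylated peptide.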

IIPDREVLYREFDEMEECSQ
optical density (450 nm) ([1]; Table 4F, serum 8315, 20-fold dilution): 2.614 | optical density (450 nm) ([1]; Table 4F, serum 8316, 20-fold dilution): 0.133 | optical density (450 nm) ([1]; Table 4F, serum 8317, 20-fold dilution): 0.855 | optical density (450 nm) ([1]; Table 4F, serum 8318, 20-fold dilution): 1.965 | optical density (450 nm) ([1]; Table 4F, serum 8320, 20-fold dilution): 0.721 | optical density (450 nm) ([1]; Table 4F, serum 8321, 20-fold dilution): 0.283 | optical density (450 nm) ([1]; Table 4F, serum 8326, 20-fold dilution): 2.219 | optical density (450 nm) ([1]; Table 5, sample 8242 (positive), peptide concentration 0.01 micrograms per milliliter, listed as Unbiotinylated HCV peptide IX): 0.049 | optical density (450 nm) ([1]; Table 5, sample 8242 (positive), peptide concentration 0.03 micrograms per milliliter, listed as Unbiotinylated HCV peptide IX): 0.047 | optical density (450 nm) ([1]; Table 5, sample 8242 (positive), peptide concentration 0.1 micrograms per milliliter, listed as Unbiotinylated HCV peptide IX): 0.046 | optical density (450 nm) ([1]; Table 5, sample 8242 (positive), peptide concentration 0.3 micrograms per milliliter, listed as Unbiotinylated HCV peptide IX): 0.048 | optical density (450 nm) ([1]; Table 5, sample 8242 (positive), peptide concentration 1.0 micrograms per milliliter, listed as Unbiotinylated HCV peptide IX): 0.052 | optical density (450 nm) ([1]; Table 5, sample 8242 (positive), peptide concentration 3.0 micrograms per milliliter, listed as Unbiotinylated HCV peptide IX): 0.059 | optical density (450 nm) ([1]; Table 5, sample 8243 (positive), peptide concentration 0.01 micrograms per milliliter, listed as Unbiotinylated HCV peptide IX): 0.054 | optical density (450 nm) ([1]; Table 5, sample 8243 (positive), peptide concentration 0.03 micrograms per milliliter, listed as Unbiotinylated HCV peptide IX): 0.051 | optical density (450 nm) ([1]; Table 5, sample 8243 (positive), peptide concentration 0.1 micrograms per milliliter, listed as Unbiotinylated HCV peptide IX): 0.051 | optical density (450 nm) ([1]; Table 5, sample 8243 (positive), peptide concentration 0.3 micrograms per milliliter, listed as Unbiotinylated HCV peptide IX): 0.051 | optical density (450 nm) ([1]; Table 5, sample 8243 (positive), peptide concentration 1.0 micrograms per milliliter, listed as Unbiotinylated HCV peptide IX): 0.053 | optical density (450 nm) ([1]; Table 5, sample 8243 (positive), peptide concentration 3.0 micrograms per milliliter, listed as Unbiotinylated HCV peptide IX): 0.063 | optical density (450 nm) ([1]; Table 5, sample 8320 (positive), peptide concentration 0.01 micrograms per milliliter, listed as Unbiotinylated HCV peptide IX): 0.059 | optical density (450 nm) ([1]; Table 5, sample 8320 (positive), peptide concentration 0.03 micrograms per milliliter, listed as Unbiotinylated HCV peptide IX): 0.057 | optical density (450 nm) ([1]; Table 5, sample 8320 (positive), peptide concentration 0.1 micrograms per milliliter, listed as Unbiotinylated HCV peptide IX): 0.063 | optical density (450 nm) ([1]; Table 5, sample 8320 (positive), peptide concentration 0.3 micrograms per milliliter, listed as Unbiotinylated HCV peptide IX): 0.122 | optical density (450 nm) ([1]; Table 5, sample 8320 (positive), peptide concentration 1.0 micrograms per milliliter, listed as Unbiotinylated HCV peptide IX): 0.093 | optical density (450 nm) ([1]; Table 5, sample 8320 (positive), peptide concentration 3.0 micrograms per milliliter, listed as Unbiotinylated HCV peptide IX): 0.129 | optical density (450 nm) ([1]; Table 5, sample 8326 (positive), peptide concentration 0.01 micrograms per milliliter, listed as Unbiotinylated HCV peptide IX): 0.049 | optical density (450 nm) ([1]; Table 5, sample 8326 (positive), peptide concentration 0.03 micrograms per milliliter, listed as Unbiotinylated HCV peptide IX): 0.051 | optical density (450 nm) ([1]; Table 5, sample 8326 (positive), peptide concentration 0.1 micrograms per milliliter, listed as Unbiotinylated HCV peptide IX): 0.068 | optical density (450 nm) ([1]; Table 5, sample 8326 (positive), peptide concentration 0.3 micrograms per milliliter, listed as Unbiotinylated HCV peptide IX): 0.078 | optical density (450 nm) ([1]; Table 5, sample 8326 (positive), peptide concentration 1.0 micrograms per milliliter, listed as Unbiotinylated HCV peptide IX): 0.068 | optical density (450 nm) ([1]; Table 5, sample 8326 (positive), peptide concentration 3.0 micrograms per milliliter, listed as Unbiotinylated HCV peptide IX): 0.084 | optical density (450 nm) ([2]; Table 4F, negative serum): 0.052 | optical density (450 nm) ([2]; Table 5, sample 1747 (negative), peptide concentration 0.01 micrograms per milliliter, listed as Unbiotinylated HCV peptide IX): 0.045 | optical density (450 nm) ([2]; Table 5, sample 1747 (negative), peptide concentration 0.03 micrograms per milliliter, listed as Unbiotinylated HCV peptide IX): 0.045 | optical density (450 nm) ([2]; Table 5, sample 1747 (negative), peptide concentration 0.1 micrograms per milliliter, listed as Unbiotinylated HCV peptide IX): 0.045 | optical density (450 nm) ([2]; Table 5, sample 1747 (negative), peptide concentration 0.3 micrograms per milliliter, listed as Unbiotinylated HCV peptide IX): 0.044 | optical density (450 nm) ([2]; Table 5, sample 1747 (negative), peptide concentration 1.0 micrograms per milliliter, listed as Unbiotinylated HCV peptide IX): 0.046 | optical density (450 nm) ([2]; Table 5, sample 1747 (negative), peptide concentration 3.0 micrograms per milliliter, listed as Unbiotinylated HCV peptide IX): 0.046 | optical density (450 nm) ([2]; Table 5, sample 1781 (negative), peptide concentration 0.01 micrograms per milliliter, listed as Unbiotinylated HCV peptide IX): 0.051 | optical density (450 nm) ([2]; Table 5, sample 1781 (negative), peptide concentration 0.03 micrograms per milliliter, listed as Unbiotinylated HCV peptide IX): 0.049 | optical density (450 nm) ([2]; Table 5, sample 1781 (negative), peptide concentration 0.1 micrograms per milliliter, listed as Unbiotinylated HCV peptide IX): 0.052 | optical density (450 nm) ([2]; Table 5, sample 1781 (negative), peptide concentration 0.3 micrograms per milliliter): 0.051 | optical density (450 nm) ([2]; Table 5, sample 1781 (negative), peptide concentration 1.0 micrograms per milliliter, listed as Unbiotinylated HCV peptide IX): 0.052 | optical density (450 nm) ([2]; Table 5, sample 1781 (negative), peptide concentration 3.0 micrograms per milliliter): 0.053

— patent US6667387B1, “HCV core peptides” (priority 1992, dated 2003)
